Measured values reported in US20230391786A1, “cGAS INHIBITORS” (Eli Lilly and Company, priority 2022, published 2023).
Counter-ions that a name gives are not always drawn.

Experiments:
recombinant human cGAS = recombinant human cGAS (Homo sapiens (Human), UniProt Q8N884); assay: In vitro inhibition assay of cGAS activity (cGAMP production, RapidFire mass spectrometry); type: biochemical; conditions: 10 nM recombinant human cGAS, 60 nM 75-bp dsDNA, ATP, GTP, room temperature 3 hours, read-out: IC50 (μM), In vitro inhibition assay for Compounds 95-348
Sequence of recombinant human cGAS (Q8N884 whole entry): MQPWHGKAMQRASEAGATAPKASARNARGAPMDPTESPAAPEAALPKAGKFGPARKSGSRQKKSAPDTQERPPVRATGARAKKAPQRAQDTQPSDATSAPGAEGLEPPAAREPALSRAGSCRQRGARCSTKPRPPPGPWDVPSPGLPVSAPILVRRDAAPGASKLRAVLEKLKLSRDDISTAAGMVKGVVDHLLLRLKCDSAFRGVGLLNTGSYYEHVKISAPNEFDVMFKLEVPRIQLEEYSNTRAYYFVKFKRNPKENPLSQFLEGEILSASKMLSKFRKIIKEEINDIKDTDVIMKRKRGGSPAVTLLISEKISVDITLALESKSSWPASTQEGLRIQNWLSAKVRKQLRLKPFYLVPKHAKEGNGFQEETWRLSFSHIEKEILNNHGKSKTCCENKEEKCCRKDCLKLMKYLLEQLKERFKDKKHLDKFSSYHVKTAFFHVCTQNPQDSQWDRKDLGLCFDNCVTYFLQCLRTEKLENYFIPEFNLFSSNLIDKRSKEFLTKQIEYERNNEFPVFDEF
In short: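 Full-length His6-tagged human cGAS (10 nM, E. coli-expressed) was incubated 3 h at room temperature with 60 nM 75-bp dsDNA, ATP, 50 μM GTP and compound at pH 7.5 with 5 mM MgCl2. cGAMP formation was measured by RapidFire mass spectrometry, and IC50 was taken from a 4-parameter logistic fit.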

[1] = test system: cGAS activity in THP1 cells (IFNb as marker); assay: Cellular assay to measure cGAS activity (IFNb production in PMA-differentiated THP1 cells stimulated by RDG-Adenovirus-GFP); type: cell-based, human; conditions: Homo sapiens, THP-1, THP1 cells, PMA differentiated, RDG-Adenovirus-GFP 1000 MOI, IFNb AlphaLISA, overnight incubation; read-out: IC50 (μM), Cellular assay for Compounds 95-348
Protocol: Cellular assay to measure cGAS activity: Use THP1 cell line from ATCC to determine inhibition of cGAS activity by test compounds in human cells. Plate cells on 96-well plates at 0.2×10^6/well and differentiate with phorbol myristate acetate (PMA) at 37° C./5% CO2. After 24 hours, replace PMA containing media with media lacking PMA and further incubate overnight. Stimulate cells were then by RDG-Adenovirus-GFP (Vector Biolabs #1768) at 1000 MOI for 4 hours prior to the addition of test compounds. After overnight incubation, transfer 10 μL of the media from each well to a new plate for IFNb analysis as a marker for cGAS activity. Measure quantification of IFNb with an IFNb AlphaLISA Detection kit (Perkin Elmer AL3133F) by mixing the acceptor beads with the cell supernatant followed by the addition of the biotinylated antibody and donor beads. Measure the relative fluorescence signal produced from the interaction of the donor and acceptor beads by a PHERAStar AlphaLISA protocol and evaluate the inhibitory effect of a compound by plotting specific inhibition of IFNb production against log concentration of the test compound. Calculate IC50 values using a 4-parameter non-linear logistic equation (y=(S0+((SInf−S0)/(1+((qAC50/x)^nHill))))).

| SMILES | IC50 (recombinant human cGAS) | IC50 [1] |
| --- | --- | --- |
| OC/C=C/CNc1cc(Cl)c(Cl)c2[nH]cc(-c3cn[nH]c3)c12 [Example 121, (E)-4-((6,7-Dichloro-3-(1H-pyrazol-4-yl)-1H-indol-4-yl)amino)but-2-en-1-ol] | 0.0652 µM | 2.99 µM |
| NCCOCCOCCOCCC(=O)NC1CCc2c(-c3cn[nH]c3)c3ccc(Cl)c(Cl)c3n2C1 (centres unmarked) [Example 124, 3-[2-[2-(2-Aminoethoxy)ethoxy]ethoxy]-N-[3,4-dichloro-10-(1H-pyrazol-4-yl)-6,7,8,9-tetrahydropyrido[1,2-a]indol-7-yl]propanamide] | 0.0882 µM | > 10 µM |
| F[C@H]1C[C@@H](Oc2cc(Cl)c(Cl)c3[nH]cc(-c4cn[nH]c4)c23)C1 [Example 126, 6,7-Dichloro-4-(cis-3-fluorocyclobutoxy)-3-(1H-pyrazol-4-yl)-1H-indole] | 0.0358 µM | 1.45 µM |
| FC(F)(F)c1nnc(-c2[nH]c3c(Cl)c(Cl)ccc3c2-c2cn[nH]c2)o1 [Example 128, 2-(6,7-Dichloro-3-(1H-pyrazol-4-yl)-1H-indol-2-yl)-5-(trifluoromethyl)-1,3,4-oxadiazole] | 0.0691 µM | > 10 µM |
| CC(=S)NCc1[nH]c2c(Cl)c(Cl)ccc2c1-c1cn[nH]c1 [Example 129, N-[[6,7-Dichloro-3-(1H-pyrazol-4-yl)-1H-indol-2-yl]methyl]thioacetamide] | 0.0552 µM | 0.895 µM |
| CC(=O)Nc1cc(Cl)c(Cl)c2[nH]c(CO)c(-c3cn[nH]c3)c12 [Example 130, N-(6,7-Dichloro-2-(hydroxymethyl)-3-(1H-pyrazol-4-yl)-1H-indol-4-yl)acetamide] | 0.0711 µM | 0.815 µM |
| N#CCNc1cc(Cl)c(Cl)c2c1c(-c1cn[nH]c1)c1n2CCNC1=O [Example 135, 2-[[6,7-Dichloro-1-oxo-10-(1H-pyrazol-4-yl)-3,4-dihydro-2H-pyrazino[1,2-a]indol-9-yl]amino]acetonitrile] | 0.0486 µM | > 10 µM |
| CC(=O)NCCn1cc(-c2cn[nH]c2)c2c(OCC#N)cc(Cl)c(Cl)c21 [Example 136, N-[2-[6,7-Dichloro-4-(cyanomethoxy)-3-(1H-pyrazol-4-yl)indol-1-yl]ethyl]acetamide] | 0.0764 µM | 3.42 µM |
| OCCCn1cc(-n2cc(-c3cn[nH]c3)c3ccc(Cl)c(Cl)c32)nn1 [Example 139, 3-[4-[6,7-Dichloro-3-(1H-pyrazol-4-yl)indol-1-yl]triazol-1-yl]propan-1-ol] | 0.077 µM | 5.13 µM |
| OCC(O)Cn1cc(-n2cc(-c3cn[nH]c3)c3ccc(Cl)c(Cl)c32)nn1 (centres unmarked) [Example 140, 3-[4-[6,7-Dichloro-3-(1H-pyrazol-4-yl)indol-1-yl]triazol-1-yl]propane-1,2-diol] | 0.0481 µM | 7.11 µM |
| O=C(CO)Nc1cc(Cl)c(Cl)c2c1c(-c1cn[nH]c1)c1n2CCN(C(=O)CO)C1 [Example 145, N-(6,7-Dichloro-2-(2-hydroxyacetyl)-10-(1H-pyrazol-4-yl)-1,2,3,4-tetrahydropyrazino[1,2-a]indol-9-yl)-2-hydroxyacetamide] | 0.0804 µM | > 10 µM |
| CC(=O)N1CCn2c(c(-c3cn[nH]c3)c3c(NC(=O)CO)cc(Cl)c(Cl)c32)C1 [Example 146, N-(2-Acetyl-6,7-dichloro-10-(1H-pyrazol-4-yl)-1,2,3,4-tetrahydropyrazino[1,2-a]indol-9-yl)-2-hydroxyacetamide] | 0.0918 µM | > 10 µM |
| NC1(C(=O)N2CCn3c(c(-c4cn[nH]c4)c4ccc(Cl)c(Cl)c43)C2)CCOCC1 [Example 147, (4-Aminotetrahydro-2H-pyran-4-yl)(6,7-dichloro-10-(1H-pyrazol-4-yl)-3,4-dihydropyrazino[1,2-a]indol-2(1H)-yl)methanone] | 0.0474 µM | 4.63 µM |
| CCNc1cc(Cl)c(Cl)c2c1c(-c1cn[nH]c1)c1n2CCN(C(=O)CO)C1 [Example 148, 1-(6,7-Dichloro-9-(ethylamino)-10-(1H-pyrazol-4-yl)-3,4-dihydropyrazino[1,2-a]indol-2(1H)-yl)-2-hydroxyethan-1-one] | 0.052 µM | 1.54 µM |
| CCNc1cc(Cl)c(Cl)c2c1c(-c1cn[nH]c1)c1n2CCN(C)C1=O [Example 149, 6,7-Dichloro-9-(ethylamino)-2-methyl-10-(1H-pyrazol-4-yl)-3,4-dihydropyrazino[1,2-a]indol-1-one hydrochloride] | 0.0442 µM | 6.05 µM |

The remaining compounds from weak to strong by IC50 (recombinant human cGAS), led by results:

| IC50 (recombinant human cGAS) | IC50 [1] | SMILES |
| --- | --- | --- |
| 0.0462 µM | 4.99 µM | OCCn1cc(-n2cc(-c3cn[nH]c3)c3ccc(Cl)c(Cl)c32)nn1 [Example 138, 2-[4-[6,7-Dichloro-3-(1H-pyrazol-4-yl)indol-1-yl]triazol-1-yl]ethanol] |
| 0.0419 µM | > 10 µM | N#CCNc1cc(Cl)c(Cl)c2c1c(-c1cn[nH]c1)c1n2CCN(CCO)C1=O [Example 143, 2-[[6,7-Dichloro-2-(2-hydroxyethyl)-1-oxo-10-(1H-pyrazol-4-yl)-3,4-dihydropyrazino[1,2-a]indol-9-yl]amino]acetonitrile] |
| 0.0303 µM | 1.92 µM | CCNc1cc(Cl)c(Cl)c2[nH]cc(-c3cn[nH]c3)c12 [Example 150, 6,7-Dichloro-N-ethyl-3-(1H-pyrazol-4-yl)-1H-indol-4-amine] |
| 0.029 µM | 0.216 µM | Cc1nnc(-c2[nH]c3c(Cl)c(Cl)ccc3c2-c2cn[nH]c2)o1 [Example 127, 2-(6,7-Dichloro-3-(1H-pyrazol-4-yl)-1H-indol-2-yl)-5-methyl-1,3,4-oxadiazole] |
| 0.0282 µM | 1.59 µM | CC(=O)NCc1c(-c2cn[nH]c2)c2ccc(Cl)c(Cl)c2n1C [Example 134, N-[[6,7-Dichloro-1-methyl-3-(1H-pyrazol-4-yl)indol-2-yl]methyl]acetamide] |
| 0.0275 µM | 3.3 µM | CNC(=O)CC(=O)NC1CCc2c(-c3cn[nH]c3)c3ccc(Cl)c(Cl)c3n2C1 (centres unmarked) [Example 141, N′-[3,4-Dichloro-10-(1H-pyrazol-4-yl)-6,7,8,9-tetrahydropyrido[1,2-a]indol-7-yl]-N-methyl-propanediamide] |
| 0.0202 µM | 0.317 µM | COCc1[nH]c2c(Cl)c(Cl)cc(NC(=O)C(F)F)c2c1-c1cn[nH]c1 [Example 132, N-(6,7-Dichloro-2-(methoxymethyl)-3-(1H-pyrazol-4-yl)-1H-indol-4-yl)-2,2-difluoroacetamide] |
| 0.0186 µM | 3.66 µM | CC(=O)NCCS(=O)(=O)NC1CCc2c(-c3cn[nH]c3)c3ccc(Cl)c(Cl)c3n2C1 (centres unmarked) [Example 119, N-(2-(N-(3,4-Dichloro-10-(1H-pyrazol-4-yl)-6,7,8,9-tetrahydropyrido[1,2-a]indol-7-yl)sulfamoyl)ethyl)acetamide] |
| 0.0154 µM | 2.27 µM | O=S(=O)(CCn1cnnn1)NC1CCc2c(-c3cn[nH]c3)c3ccc(Cl)c(Cl)c3n2C1 (centres unmarked) [Example 120, N-(3,4-Dichloro-10-(1H-pyrazol-4-yl)-6,7,8,9-tetrahydropyrido[1,2-a]indol-7-yl)-2-(1H-tetrazol-1-yl)ethane-1-sulfonamide] |
| 0.0137 µM | 0.88 µM | FC(F)CNc1cc(Cl)c(Cl)c2[nH]cc(-c3cn[nH]c3)c12 [Example 122, 6,7-Dichloro-N-(2,2-difluoroethyl)-3-(1H-pyrazol-4-yl)-1H-indol-4-amine] |
| 0.0131 µM | 0.163 µM | O=C(Nc1cc(Cl)c(Cl)c2[nH]c(CO)c(-c3cn[nH]c3)c12)C(F)F [Example 131, N-(6,7-Dichloro-2-(hydroxymethyl)-3-(1H-pyrazol-4-yl)-1H-indol-4-yl)-2,2-difluoroacetamide] |
| 0.0127 µM | 3.14 µM | N#CCOc1cc(Cl)c(Cl)c2c1c(-c1cn[nH]c1)c1n2CCN(CCO)C1=O [Example 142, 2-[[6,7-Dichloro-2-(2-hydroxyethyl)-1-oxo-10-(1H-pyrazol-4-yl)-3,4-dihydropyrazino[1,2-a]indol-9-yl]oxy]acetonitrile] |
| 0.0112 µM | 0.498 µM | Cn1c(CNC(=O)CO)c(-c2cn[nH]c2)c2ccc(Cl)c(Cl)c21 [Example 133, N-[[6,7-Dichloro-1-methyl-3-(1H-pyrazol-4-yl)indol-2-yl]methyl]-2-hydroxy-acetamide] |
| 0.0103 µM | 0.426 µM | CC(CO)COc1cc(Cl)c(Cl)c2[nH]cc(-c3cn[nH]c3)c12 (centres unmarked) [Example 125, 3-((6,7-Dichloro-3-(1H-pyrazol-4-yl)-1H-indol-4-yl)oxy)-2-methylpropan-1-ol] |
| 0.00491 µM | 0.547 µM | FCCNc1cc(Cl)c(Cl)c2[nH]cc(-c3cn[nH]c3)c12 [Example 123, 6,7-Dichloro-N-(2-fluoroethyl)-3-(1H-pyrazol-4-yl)-1H-indol-4-amine] |
| 0.00433 µM | 1.47 µM | OCCCNc1cc(Cl)c(Cl)c2[nH]cc(-c3cn[nH]c3)c12 [Example 144, 3-[[6,7-Dichloro-3-(1H-pyrazol-4-yl)-1H-indol-4-yl]amino]propan-1-ol] |
